Results taken from patent publication US11311530B2, “Lewy body disease therapeutic agent containing pyrazoloquinoline derivative” (Eisai R&D Management Co., Ltd., priority 2017, dated 2022).

Columns and labels:
[1] = test system: rat with scopolamine-induced cognitive impairment; assay: Novel object recognition test using rats with scopolamine-induced cognitive impairment; format: in vivo; conditions: for percentage of exploration of the novel object during T2: scopolamine 0.7 mg/kg s.c., male Long Evans rats, mean ± standard error
Method: A novel object recognition test using rats with scopolamine-induced cognitive impairment was performed to confirm the effect of improving cognitive impairment induced by an acetylcholine nerve disorder. The novel object recognition test is a test system for assessing cognitive function based on the spontaneous behavioral characteristic of a rodent in which the rodent spends more time exploring a novel object than a familiar object. The test method described in Ennacer etc. Behavioural Brain Research, 31 (1988) pp. 47-51 was partially modified and performed.
Six-week-old male Long Evans rats (the Institute for Animal Reproduction) were subjected to the test. For two days before the test, a process for habituating the rat to the experimental procedure was performed once daily. In the habituation process, administration of a vehicle to the rat was performed, and subsequently, the rat was placed in an empty test apparatus (40 cm×30 cm×H 45 cm) and allowed to explore for 3 minutes, was transferred into a waiting chamber (13 cm×30 cm×H 45 cm) for about 1 minute, and then was returned into the empty test apparatus again and allowed to stay for 5 minutes.
On the day of the test, an acquisition trial (T1) was performed. Compound (I) was administered orally by using a solution of 0.5% methylcellulose in 0.01 M hydrochloric acid as a vehicle 2 hours before T1. Scopolamine (Wako Pure Chemical Industries, Ltd.) was administered subcutaneously by using a saline as a vehicle at a dose of 0.7 mg/kg 30 minutes before T1. […] The behaviors of the rat during T1 and T2 were recorded by a digital video camera and the total exploration time for each object was measured manually using a stopwatch. […]
In the novel object recognition test, a percentage of exploration of the novel object during T2 is considered as an amnesia index that reflects discrimination between the familiar object and the novel object. The percentage of exploration of the novel object was calculated in accordance with the following equation. […]
The results were expressed as mean±standard error. […]

[2] = molecular target: phosphodiesterase 9 (PDE9) (Homo sapiens, UniProt O76083); conditions: from Patent Literature 1; cited from earlier work
Sequence of phosphodiesterase 9 (PDE9) (O76083 whole entry): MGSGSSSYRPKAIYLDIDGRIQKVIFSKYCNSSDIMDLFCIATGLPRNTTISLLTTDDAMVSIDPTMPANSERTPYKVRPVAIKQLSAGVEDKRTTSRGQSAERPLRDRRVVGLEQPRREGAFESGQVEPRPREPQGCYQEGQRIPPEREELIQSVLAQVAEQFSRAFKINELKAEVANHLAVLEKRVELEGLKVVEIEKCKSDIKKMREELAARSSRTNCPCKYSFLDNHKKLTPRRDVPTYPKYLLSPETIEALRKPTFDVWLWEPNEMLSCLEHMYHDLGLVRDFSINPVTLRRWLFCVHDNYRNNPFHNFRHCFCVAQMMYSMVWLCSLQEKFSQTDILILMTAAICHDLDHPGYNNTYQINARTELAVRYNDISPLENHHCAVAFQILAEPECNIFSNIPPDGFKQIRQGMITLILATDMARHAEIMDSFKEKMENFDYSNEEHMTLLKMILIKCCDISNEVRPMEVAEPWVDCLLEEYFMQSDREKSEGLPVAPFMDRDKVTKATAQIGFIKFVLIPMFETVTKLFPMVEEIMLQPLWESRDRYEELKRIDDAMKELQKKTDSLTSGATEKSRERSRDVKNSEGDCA

Structure (SMILES): COc1ncc(C)c(-c2ccc3c(c2)[nH]c(=O)c2cnn([C@H]4CCOC4)c23)c1C [Compound (I), (S)-7-(2-methoxy-3,5-dimethylpyridin-4-yl)-1-(tetrahydrofuran-3-yl)-1H-pyrazolo[4,3-c]quinolin-4(5H)-one]
- percentage of exploration of the novel object during T2 ([1]; 3.3 mg/kg orally 2 hours before T1): 68.5 ± 2.0 %
- percentage of exploration of the novel object during T2 ([1]; 10 mg/kg orally 2 hours before T1): 68.5 ± 1.6 %
- effect of improving the percentage of exploration of the novel object ([1]; at 3.3 mg/kg and 10 mg/kg, versus disease control group, Dunnett's test, p<0.05): significant effect of improving the percentage of exploration of the novel object
- PDE9 inhibitory action [2]: exhibits a PDE9 inhibitory action
